Our source for the IC50 values is US11566007B2, “Ras inhibitors” (Revolution Medicines, Inc., priority 2019, dated 2023).

Bounds are passed on as bounds.

Assay type in all cases: biochemical
Assay [1] addresses KRAS G12S (Homo sapiens (Human), UniProt P01116+P62937, G12S). Kind of assay: Ras-Raf (BRAF RBD) disruption / FRET / MOA assay, KRAS G12S. The following applies: Ras-Raf disruption/FRET/MOA assay; class symbols; read-out: KRAS G12S FRET data IC50. The method in brief:
(§1)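 Compounds, top final concentration 30 μM in 10-point 3-fold series, incubated 3 hours at 25° C with nucleotide-loaded Ras, cyclophilin A and BRAF RBD.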

Assay [2] deals with KRAS G12V (Homo sapiens (Human), UniProt P01116+P62937, G12V). Kind of assay: Ras-Raf (BRAF RBD) disruption / FRET / MOA assay, KRAS G12V. The following applies: read-out: IC50* KRAS G12V FRET data. The method in brief: as §1
Assay [3] deals with K-Ras G12C (Homo sapiens (Human), UniProt P01116+P62937, G12C). The experiment in a line: Ras-Raf (BRAF RBD) disruption / FRET / MOA assay, KRAS G12C. The following applies: KRAS G12C; Ras-Raf disruption/FRET/MOA assay; read-out: IC50* KRAS G12C FRET data. The method in brief: as §1
For assay [4], the target named is KRAS G13D (Homo sapiens (Human), UniProt P01116+P62937, G13D). Kind of assay: Ras-Raf (BRAF RBD) disruption / FRET / MOA assay, KRAS G13D. Conditions: read-out: IC50* KRAS G13D FRET data. The method in brief: as §1
Assay [5] has as its target NRAS G12C (Homo sapiens (Human), UniProt P01111+P62937, G12C). Kind of assay: Ras-Raf (BRAF RBD) disruption / FRET / MOA assay, NRAS G12C. Conditions: read-out: IC50* NRAS G12C FRET data. The method in brief: as §1
The target of assay [6] is KRAS Q61H (Homo sapiens (Human), UniProt P01116+P62937, Q61H). Kind of assay: Ras-Raf (BRAF RBD) disruption / FRET / MOA assay, KRAS Q61H. Conditions: Ras-Raf disruption/FRET/MOA assay; class symbols; read-out: KRAS Q61H FRET data IC50. The method in brief: (§2)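 TR-FRET disruption of nucleotide-loaded Ras binding to BRAF RBD via compound-driven ternary complex with cyclophilin A. Compound as 10-point 3-fold series from 30 μM final, 3 h at 25° C, then anti-His Eu-W1024 (10 nM) and anti-GST allophycocyanin (50 nM) for 1.5 h. IC50 from decreased FRET ratio versus DMSO.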

Assay [7] concerns the target NRAS Q61K (Homo sapiens (Human), UniProt P01111+P62937, Q61K). Kind of assay: Ras-Raf (BRAF RBD) disruption / FRET / MOA assay, NRAS Q61K. Conditions: NRAS Q61K; Ras-Raf disruption/FRET/MOA assay; read-out: IC50* NRAS Q61K FRET data. The method in brief:
as §2

The target in assay [8] is NRAS WT (Homo sapiens (Human), UniProt P01111+P62937). The experiment in a line: Ras-Raf (BRAF RBD) disruption / FRET / MOA assay, NRAS WT. Conditions: read-out: IC50* NRAS WT FRET data. The method in brief:
as §2

Assay [9] concerns the target KRAS G12D (Homo sapiens (Human), UniProt P01116+P62937, G12D). The experiment in a line: Ras-Raf (BRAF RBD) disruption / FRET / MOA assay, KRAS G12D. The following applies: Ras-Raf disruption/FRET/MOA assay; class symbols; read-out: KRAS G12D FRET data IC50. The method in brief:
as §1

Sequence of NRAS WT (P01111 whole entry): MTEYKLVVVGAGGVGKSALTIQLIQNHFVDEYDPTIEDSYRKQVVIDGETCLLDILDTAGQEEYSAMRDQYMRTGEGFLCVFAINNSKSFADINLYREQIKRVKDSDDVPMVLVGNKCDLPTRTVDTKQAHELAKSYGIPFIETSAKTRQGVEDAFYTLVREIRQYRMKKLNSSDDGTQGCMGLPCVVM
Sequence of NRAS WT (P62937 whole entry): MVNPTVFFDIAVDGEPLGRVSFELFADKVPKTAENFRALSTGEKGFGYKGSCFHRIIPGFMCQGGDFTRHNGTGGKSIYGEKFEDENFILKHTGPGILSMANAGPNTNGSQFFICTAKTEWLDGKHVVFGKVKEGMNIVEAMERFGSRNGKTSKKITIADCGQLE
Sequence of KRAS G12S (P01116-2 other isoform, or with tags, fused parts or gaps G12S): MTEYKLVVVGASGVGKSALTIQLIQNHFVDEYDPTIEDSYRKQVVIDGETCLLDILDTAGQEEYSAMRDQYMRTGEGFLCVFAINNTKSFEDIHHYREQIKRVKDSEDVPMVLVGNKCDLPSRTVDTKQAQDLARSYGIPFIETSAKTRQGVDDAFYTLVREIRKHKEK
Sequence of KRAS G12S (P62937 whole entry): as the sequence (P62937 whole entry) above
Sequence of KRAS G13D (P01116-2 other isoform, or with tags, fused parts or gaps G13D): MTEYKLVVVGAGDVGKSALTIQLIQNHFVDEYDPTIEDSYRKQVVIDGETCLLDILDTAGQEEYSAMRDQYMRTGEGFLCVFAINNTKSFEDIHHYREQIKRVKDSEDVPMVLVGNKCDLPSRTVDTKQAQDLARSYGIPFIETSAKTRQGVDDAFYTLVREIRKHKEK
Sequence of KRAS G13D (P62937 whole entry): as the sequence (P62937 whole entry) above
Sequence of NRAS Q61K (P01111 whole entry Q61K): as the sequence (P01111 whole entry) above, with Q61K counted along it
Sequence of NRAS Q61K (P62937 whole entry): as the sequence (P62937 whole entry) above
Sequence of KRAS Q61H (P01116-2 other isoform, or with tags, fused parts or gaps Q61H): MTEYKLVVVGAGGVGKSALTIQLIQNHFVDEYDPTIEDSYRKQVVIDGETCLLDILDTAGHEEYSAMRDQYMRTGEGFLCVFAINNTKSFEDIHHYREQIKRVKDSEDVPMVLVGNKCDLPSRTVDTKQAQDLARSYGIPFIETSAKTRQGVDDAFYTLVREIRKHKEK
Sequence of KRAS Q61H (P62937 whole entry): as the sequence (P62937 whole entry) above
Sequence of K-Ras G12C (P01116-2 other isoform, or with tags, fused parts or gaps G12C): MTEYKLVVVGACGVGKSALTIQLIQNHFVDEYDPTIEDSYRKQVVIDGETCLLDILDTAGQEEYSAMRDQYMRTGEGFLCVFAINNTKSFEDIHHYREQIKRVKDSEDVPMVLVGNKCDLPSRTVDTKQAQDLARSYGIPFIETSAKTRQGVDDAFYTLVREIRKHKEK
Sequence of K-Ras G12C (P62937 whole entry): as the sequence (P62937 whole entry) above
Sequence of KRAS G12V (P01116-2 other isoform, or with tags, fused parts or gaps G12V): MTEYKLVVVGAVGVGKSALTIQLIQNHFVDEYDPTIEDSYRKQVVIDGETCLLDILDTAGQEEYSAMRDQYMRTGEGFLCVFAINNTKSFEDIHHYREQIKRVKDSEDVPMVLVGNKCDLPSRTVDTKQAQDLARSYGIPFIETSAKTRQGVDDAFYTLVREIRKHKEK
Sequence of KRAS G12V (P62937 whole entry): as the sequence (P62937 whole entry) above
Sequence of NRAS G12C (P01111 whole entry G12C): as the sequence (P01111 whole entry) above, with G12C counted along it
Sequence of NRAS G12C (P62937 whole entry): as the sequence (P62937 whole entry) above
Sequence of KRAS G12D (P01116-2 other isoform, or with tags, fused parts or gaps G12D): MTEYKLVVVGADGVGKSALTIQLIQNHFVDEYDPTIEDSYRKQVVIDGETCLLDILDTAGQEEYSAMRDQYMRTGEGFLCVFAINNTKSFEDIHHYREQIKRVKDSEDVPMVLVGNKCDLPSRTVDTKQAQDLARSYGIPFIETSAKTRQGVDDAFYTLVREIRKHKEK
Sequence of KRAS G12D (P62937 whole entry): as the sequence (P62937 whole entry) above

For the compound `CO[C@@H](C)c1ncccc1-c1c2c3cc(ccc3n1CC(F)(F)F)-c1cccc(c1)C[C@H](NC(=O)[C@H](C(C)C)N1CC[C@]3(CCN(C(=O)C#CC(C)(C)N(C)C)C3)C1=O)C(=O)N1CCC[C@H](N1)C(=O)OCC(C)(C)C2` (atropisomer, axis not shown) [Example A689], the IC50 is 100 to 1000 nM in assay [1]; 1000 to 10000 nM in [2]; less than 10 nM in [3]; 1000 to 10000 nM in [4]; less than 10 nM in assay [5]; 100 to 1000 nM in [6]. For the same compound, the 50% inhibitory concentration (IC50) in assay [7], in assay [8] and in [9] was 1000 to 10000 nM throughout.
On to `CCn1c(-c2cccnc2[C@H](C)OC)c2c3cc(ccc31)-c1csc(n1)C[C@H](NC(=O)[C@H](C(C)C)N(C)C(=O)N(C)C1CN(C(=O)/C=C/C3CN(C)C3)C1)C(=O)N1CCC[C@H](N1)C(=O)OCC(C)(C)C2` (atropisomer, axis not shown) [Example A690], for which the concentration for half-maximal inhibition (IC50) in assay [1] lay in the range of 100 to 1000 nM; in assay [2] it was 1000 to 10000 nM; in [3], 100 to 1000 nM; in [4], 100 to 1000 nM; in assay [5] it was 100 to 1000 nM; in assay [6] it was 100 to 1000 nM. For the same compound, the 50% inhibitory concentration (IC50) was 100 to 1000 nM in [7], 100 to 1000 nM in assay [8] and 1000 to 10000 nM in assay [9].
Turning to `CO[C@@H](C)c1ncccc1-c1c2c3cc(ccc3n1CC(F)(F)F)-c1cccc(c1)C[C@H](NC(=O)[C@@H](COC1CN(C(=O)C#CC3(C)OCCO3)C1)C(C)C)C(=O)N1CCC[C@H](N1)C(=O)OCC(C)(C)C2` (atropisomer, axis not shown) [Example A703], the half-inhibitory concentration (IC50) is more than 10000 nM in assay [1]; 1000 to 10000 nM in assay [2]; 10 to 100 nM in assay [3]; more than 10000 nM in [4]; 10 to 100 nM in assay [5]; 1000 to 10000 nM in [6]. The half-inhibitory concentration (IC50) in assay [7] was more than 10000 nM; in assay [8] it was 1000 to 10000 nM; in assay [9] it was more than 10000 nM.
`C=CC(=O)N1CC(N(C)C(=O)N(C)[C@H](C(=O)N[C@H]2Cc3nc(cs3)-c3ccc4c(c3)c(c(-c3cccnc3[C@H](C)OC)n4CC(F)(F)F)CC(C)(C)COC(=O)[C@@H]3CCCN(N3)C2=O)C(C)C)C1` (atropisomer, axis not shown) [Example A711]: the IC50 in assay [1] is 100 to 1000 nM; in assay [2], 100 to 1000 nM; in assay [3] it was less than 10 nM; in [4], 100 to 1000 nM; in assay [5] it was less than 10 nM; in assay [6], 10 to 100 nM. The 50% inhibitory concentration (IC50) in assay [7] fell in the range of 10 to 100 nM; in assay [8] it was 10 to 100 nM; in assay [9] it was 100 to 1000 nM.
`CCn1c(-c2cccnc2[C@H](C)OC)c2c3cc(ccc31)-c1csc(n1)C[C@H](NC(=O)[C@@H](COC1CN(C(=O)C#CC(C)(C)N(C)C)C1)C(C)C)C(=O)N1CCC[C@H](N1)C(=O)OCC(C)(C)C2` (atropisomer, axis not shown) [Example A721]: the IC50 is more than 10000 nM in assay [1]; 1000 to 10000 nM in assay [2]; less than 10 nM in [3]; more than 10000 nM in [4]; less than 10 nM in assay [5]; 1000 to 10000 nM in [6]. The IC50 in assay [7] was more than 10000 nM; in [8] it was 1000 to 10000 nM; in [9], more than 10000 nM.
For `CO[C@@H](C)c1ncccc1-c1c2c3cc(ccc3n1CC(F)(F)F)-c1cccc(c1)C[C@H](NC(=O)[C@H](C(C)C)N(C)C(=O)[C@H]1CCN(C(=O)C#CC(C)(C)N(C)C)C1)C(=O)N1CCC[C@H](N1)C(=O)OCC(C)(C)C2` (atropisomer, axis not shown) [Example A727], the 50% inhibitory concentration (IC50) in [1] was 1000 to 10000 nM; in assay [2] it was 1000 to 10000 nM; in [3] it was less than 10 nM; in assay [4] it was 1000 to 10000 nM; in assay [5], less than 10 nM; in assay [6], 1000 to 10000 nM. For the same compound, the concentration for half-maximal inhibition (IC50) in assay [7], in [8] and in [9] was 1000 to 10000 nM in each case.
`CCn1c(-c2cccnc2)c2c3cc(ccc31)-c1csc(c1)C[C@H](NC(=O)[C@H](C(C)C)N(C)C(=O)[C@H]1CCN(C(=O)C#CCN3CCOCC3)C1)C(=O)N1CCC[C@H](N1)C(=O)OCC(C)(C)C2` [Example A205]: the IC50 in assay [1] is more than 10000 nM; in assay [2], more than 10000 nM; in [3], 100 to 1000 nM; in [4], more than 10000 nM; in assay [5] it was 1000 to 10000 nM; in assay [6] it was more than 10000 nM. Further, the concentration for half-maximal inhibition (IC50) in assay [7], in [8] and in assay [9] was more than 10000 nM throughout.
Regarding `C=CC(=O)N1CC[C@H](C(=O)N(C)[C@H](C(=O)N[C@H]2C[C@H]3CN(CCO3)c3ccc4c(c3)c(c(-c3cccnc3COC)n4CC)CC(C)(C)COC(=O)[C@@H]3CCCN(N3)C2=O)C(C)C)C1` [Example A240], the IC50 in assay [1] was more than 10000 nM; in assay [2] it was more than 10000 nM; in assay [3], 1000 to 10000 nM; in [4], more than 10000 nM; in [5], 1000 to 10000 nM; in assay [6], more than 10000 nM. The IC50 in [7], in [8] and in assay [9] was more than 10000 nM in each case.
Take `CCn1c(-c2cccnc2[C@H](C)OC)c2c3cc(ccc31)N1CCO[C@@](C)(C[C@H](NC(=O)[C@H](C(C)C)N(C)C(=O)C3(F)CCN(C(=O)C#CC(C)(C)N(C)C)CC3)C(=O)N3CCC[C@H](N3)C(=O)OCC(C)(C)C2)C1` [Example A550]: the IC50 in assay [1] was 1000 to 10000 nM; in assay [2] it was 100 to 1000 nM; in assay [3], less than 10 nM; in assay [4], 1000 to 10000 nM; in assay [5], less than 10 nM; in assay [6], 1000 to 10000 nM. In addition, the results for the concentration for half-maximal inhibition (IC50) in assay [7], in [8] and in [9] were 1000 to 10000 nM, 100 to 1000 nM and 1000 to 10000 nM, respectively.
Turning to `C=CC(=O)N1CCO[C@H]2CN(C(=O)N(C)[C@H](C(=O)N[C@H]3C[C@H]4CN(CCO4)c4ccc5c(c4)c(c(-c4cccnc4[C@H](C)OC)n5CC)CC(C)(C)COC(=O)[C@@H]4CCCN(N4)C3=O)C(C)C)C[C@H]21` [Example A562], the IC50 in assay [1] was in the range of 1000 to 10000 nM; in [2] it was 1000 to 10000 nM; in [3], 100 to 1000 nM; in assay [4], 1000 to 10000 nM; in assay [5] it was 100 to 1000 nM; in assay [6], 1000 to 10000 nM. For the same compound, the concentration for half-maximal inhibition (IC50) in assay [7], in assay [8] and in [9] was 1000 to 10000 nM in each case.

As usually defined, the IC50 is the concentration needed to halve the response being measured.
